Measurements taken from ChEMBL document CHEMBL3784951, “Discovery of (3-(4-(2-Oxa-6-azaspiro[3.3]heptan-6-ylmethyl)phenoxy)azetidin-1-yl)(5-(4-methoxyphenyl)-1,3,4-oxadiazol-2-yl)methanone (AZD1979), a Melanin Concentrating Hormone Receptor 1 (MCHr1) Antagonist with Favorable Physicochemical Properties” (J Med Chem, 2016).
Converted amounts (≈) assume the structure as drawn. Values belong to the molecule of their own block, whether it stands above or below them.

Experiments:
physchem [1] = details: buffer, pH 7.4
in vitro [2] = details: human, Caco-2
in vitro [3] = details: human, microsomes
physchem [4] = test: physchem
Mus musculus [5] = species on record: Mus musculus; test: animal or person; details: C57BL/6J
in vitro [6] = details: rat, microsomes
in vitro [7] = details: human, Caco-2; remark: listed apart in the source
physchem [8] = details: pH 7.4
Mus musculus [9] = species on record: Mus musculus; test: animal or person; details: C57BL/6J; remark: listed apart in the source

SMILES: COc1ccc(-c2nnc(C(=O)N3CC(Oc4ccc(CN5CCOCC5)c(OC)c4)C3)o2)cc1
logD (physchem [1]): 3.3
Papp A→B (in vitro [2]): 51 ×10⁻⁶ cm/s
microsomal CLint (in vitro [3]): 332 µL/min/mg
pKa (physchem [4]): 7.5

SMILES: COc1ccc(-c2nnc(C(=O)N3CCC(Oc4ccc(CN5CCN(C)CC5)cc4)CC3)o2)cc1
logD (physchem [1]): 2.5
Papp A→B (in vitro [2]): 56 ×10⁻⁶ cm/s
pKa (physchem [4]): 8.5

SMILES: COc1ccc(-c2nnc(C(=O)N3CCC(Oc4ccc(CN5CCCC5)cn4)CC3)o2)cc1
microsomal CLint (in vitro [6]): 28 µL/min/mg
logD (physchem [1]): 2.3
Papp A→B (in vitro [2]): 49 ×10⁻⁶ cm/s
microsomal CLint (in vitro [3]): 24 µL/min/mg
pKa (physchem [4]): 9.2

SMILES: COc1ccc(-c2nnc(C(=O)N3CC(Oc4ccc(CN(C)C)c(C)c4)C3)o2)cc1
microsomal CLint (in vitro [6]): 149 µL/min/mg
logD (physchem [1]): 2
Papp A→B (in vitro [2]): 54 ×10⁻⁶ cm/s
microsomal CLint (in vitro [3]): 22 µL/min/mg
efflux ratio (in vitro [7]): 0.3
pKa (physchem [4]): 9.3
IC50 (Mus musculus [5]): 1 nM

SMILES: COc1ccc(-c2nnc(C(=O)N3CC(Oc4ccc(CN(C)CC5(C)COC5)cc4)C3)o2)cc1
logD (physchem [1]): 4.1
microsomal CLint (in vitro [3]): 110 µL/min/mg
pKa (physchem [4]): 8

SMILES: O=C(c1nnc(-c2ccc(Cl)cc2)o1)N1CCC(Oc2ccc(CN3CCCC3)cc2)CC1
microsomal CLint (in vitro [6]): 17 µL/min/mg
Papp A→B (in vitro [2]): 43 ×10⁻⁶ cm/s
microsomal CLint (in vitro [3]): 13 µL/min/mg
solubility (physchem [8]): 70 µM (≈ 32.7 µg/mL)

SMILES: COc1ccc(-c2nnc(C(=O)N3CCC(Oc4ccc(CN5CCCC5)nc4)CC3)o2)cc1
logD (physchem [1]): 1.8
Papp A→B (in vitro [2]): 31 ×10⁻⁶ cm/s
pKa (physchem [4]): 9.1

SMILES: Cn1nc(C(=O)N2CCC(Oc3ccc(CN4CCCC4)cc3)CC2)cc1-c1ccccc1
logD (physchem [1]): 2.2
microsomal CLint (in vitro [3]): 7 µL/min/mg
solubility (physchem [8]): 930 µM (≈ 413 µg/mL)

SMILES: O=C(c1nnc(-c2ccc(F)cc2)o1)N1CCC(Oc2ccc(CN3CCCC3)cc2)CC1
logD (physchem [1]): 2.4
Papp A→B (in vitro [2]): 52 ×10⁻⁶ cm/s
solubility (physchem [8]): > 100 µM

SMILES: COc1ccc(-c2nnc(C(=O)N3CC(Oc4ccc(CN(C)C)cc4)C3)o2)cc1
microsomal CLint (in vitro [6]): 53 µL/min/mg
logD (physchem [1]): 1.55
Papp A→B (in vitro [2]): 67 ×10⁻⁶ cm/s
microsomal CLint (in vitro [3]): 17 µL/min/mg
pKa (physchem [4]): 8.9
IC50 (Mus musculus [5]): 14 nM

SMILES: COc1ccc(-c2nnc(C(=O)N3CC(Oc4ccc(CN(C)C)c(F)c4)C3)o2)cc1
microsomal CLint (in vitro [6]): 218 µL/min/mg
logD (physchem [1]): 2.2
Papp A→B (in vitro [2]): 62 ×10⁻⁶ cm/s
microsomal CLint (in vitro [3]): 42 µL/min/mg
efflux ratio (in vitro [7]): 0.32
pKa (physchem [4]): 8.6
IC50 (Mus musculus [5]): 9 nM

SMILES: O=C(c1cc(-c2ccccc2)on1)N1CCC(Oc2ccc(CN3CCCC3)cc2)CC1
logD (physchem [1]): 3
solubility (physchem [8]): 198 µM (≈ 85.4 µg/mL)

SMILES: COc1ccc(-c2nnc(C(=O)N3CC(Oc4ccc(CN5CCN(C)CC5)c(F)c4)C3)o2)cc1
logD (physchem [1]): 2.2
Papp A→B (in vitro [2]): 46 ×10⁻⁶ cm/s
microsomal CLint (in vitro [3]): 36 µL/min/mg
efflux ratio (in vitro [7]): 0.35
pKa (physchem [4]): 8.4

SMILES: COc1ccc(-c2nnc(C(=O)N3CCC(Oc4ccc(CN5CC(O)C(C)(C)C5)cc4)CC3)o2)cc1 (stereo not given)
IC50 (Mus musculus [9]): 91 nM
logD (physchem [1]): 2.6
Papp A→B (in vitro [2]): 34 ×10⁻⁶ cm/s
microsomal CLint (in vitro [3]): 19 µL/min/mg
pKa (physchem [4]): 8.9

SMILES: COc1ccc(-c2nnc(C(=O)N3CC(Oc4ccc(CN(C)C)cn4)C3)o2)cc1
microsomal CLint (in vitro [6]): 145 µL/min/mg
logD (physchem [1]): 1.8
microsomal CLint (in vitro [3]): 13 µL/min/mg
pKa (physchem [4]): 8.5

SMILES: O=C(c1nnc(-c2ccc(OC(F)F)cc2)o1)N1CCC(Oc2ccc(CN3CCCC3)cc2)CC1
logD (physchem [1]): 2.9
Papp A→B (in vitro [2]): 50 ×10⁻⁶ cm/s
microsomal CLint (in vitro [3]): 15 µL/min/mg

SMILES: COc1ccc(-c2nnc(C(=O)N3CCC(Oc4ccc(CN5CCC(O)C5)cc4)CC3)o2)cc1 (stereo not given)
IC50 (Mus musculus [9]): 293 nM
logD (physchem [1]): 2
Papp A→B (in vitro [2]): 36 ×10⁻⁶ cm/s
pKa (physchem [4]): 8.9

Further lines, results first:

logD (physchem [1]): 2.7
Papp A→B (in vitro [2]): 41 ×10⁻⁶ cm/s
microsomal CLint (in vitro [3]): 29 µL/min/mg
pKa (physchem [4]): 8.4
IC50 (Mus musculus [5]): 2 nM
SMILES: COc1ccc(-c2nnc(C(=O)N3CC(Oc4ccc(CN5CC6(CCCO6)C5)cc4)C3)o2)cc1

logD (physchem [1]): 2.1
microsomal CLint (in vitro [3]): 2 µL/min/mg
pKa (physchem [4]): 8.6
SMILES: O=C(c1nnc(-c2ccccc2)o1)N1CC(Oc2ccc(CN3CC4(CCOC4)C3)cc2)C1

logD (physchem [1]): 3.9
microsomal CLint (in vitro [3]): 74 µL/min/mg
SMILES: COc1ccc(-c2nnc(C(=O)N3CC(Oc4ccc(CN5CCCC56COC6)cc4)C3)o2)cc1

logD (physchem [1]): 4
microsomal CLint (in vitro [3]): 117 µL/min/mg
pKa (physchem [4]): 8.5
SMILES: CN(Cc1ccc(OC2CN(C(=O)c3nnc(-c4ccccc4)o3)C2)cc1)CC1(C)COC1

logD (physchem [1]): 1.8
Papp A→B (in vitro [2]): 79 ×10⁻⁶ cm/s
IC50 (Mus musculus [5]): 15 nM
SMILES: O=C(c1nnc(-c2ccccc2)o1)N1CC(Oc2ccc(CN3CC4(COC4)C3)cc2)C1

logD (physchem [1]): 2.6
microsomal CLint (in vitro [3]): 6 µL/min/mg
pKa (physchem [4]): 8.4
SMILES: O=C(c1nnc(-c2ccccc2)o1)N1CC(Oc2ccc(CN3CC4(CCCO4)C3)cc2)C1

logD (physchem [1]): 2.3
microsomal CLint (in vitro [3]): 51 µL/min/mg
pKa (physchem [4]): 8.5
SMILES: COc1ccc(-c2nnc(C(=O)N3CC(Oc4ccc(CN5CC(OC)C5)cc4)C3)o2)cc1

logD (physchem [1]): 1.45
Papp A→B (in vitro [2]): 34 ×10⁻⁶ cm/s
efflux ratio (in vitro [7]): 0.26
pKa (physchem [4]): 9
IC50 (Mus musculus [5]): 146 nM
SMILES: CC1(O)CCN(Cc2ccc(OC3CN(C(=O)c4nnc(-c5ccccc5)o4)C3)cc2)C1 (stereo not given)

logD (physchem [1]): 2.2
Papp A→B (in vitro [2]): 60 ×10⁻⁶ cm/s
microsomal CLint (in vitro [3]): 14 µL/min/mg
pKa (physchem [4]): 8.6
IC50 (Mus musculus [5]): 2 nM
SMILES: COc1ccc(-c2nnc(C(=O)N3CC(Oc4ccc(CN5CC6(CCOC6)C5)cc4)C3)o2)cc1

logD (physchem [1]): 2.7
Papp A→B (in vitro [2]): 59 ×10⁻⁶ cm/s
microsomal CLint (in vitro [3]): 13 µL/min/mg
SMILES: O=C(c1nnc(-c2ccccc2Cl)o1)N1CCC(Oc2ccc(CN3CCCC3)cc2)CC1

logD (physchem [1]): 2.4
Papp A→B (in vitro [2]): 51 ×10⁻⁶ cm/s
microsomal CLint (in vitro [3]): 37 µL/min/mg
pKa (physchem [4]): 8.1
SMILES: COc1ccc(-c2nnc(C(=O)N3CC(Oc4ccc(CN5CCCOCC5)cc4)C3)o2)cc1

logD (physchem [1]): 3
solubility (physchem [8]): 754 µM (≈ 336 µg/mL)
SMILES: Cc1oc(-c2ccccc2)nc1C(=O)N1CCC(Oc2ccc(CN3CCCC3)cc2)CC1

logD (physchem [1]): 1.6
Papp A→B (in vitro [2]): 42 ×10⁻⁶ cm/s
microsomal CLint (in vitro [3]): 2.8 µL/min/mg
pKa (physchem [4]): 9
IC50 (Mus musculus [5]): 35 nM
SMILES: COc1ccc(-c2nnc(C(=O)N3CC(Oc4ccc(CN5CCC(C)(O)C5)cc4)C3)o2)cc1 (stereo not given)

logD (physchem [1]): 2.2
Papp A→B (in vitro [2]): 55 ×10⁻⁶ cm/s
solubility (physchem [8]): > 100 µM
SMILES: O=C(c1nnc(-c2ccccc2)o1)N1CCC(Oc2ccc(CN3CCCC3)cc2)CC1

logD (physchem [1]): 2.1
Papp A→B (in vitro [2]): 46 ×10⁻⁶ cm/s
microsomal CLint (in vitro [3]): 20 µL/min/mg
efflux ratio (in vitro [7]): 0.35
pKa (physchem [4]): 8.4
SMILES: CN1CCN(Cc2ccc(OC3CN(C(=O)c4nnc(-c5ccccc5)o4)C3)cc2F)CC1
